From paper PMC5694347 (Clinical cancer research : an official journal of the …, 2015)
Marks after values point to notes of the source that are not given here.

Tested on: patients with relapsed and/or refractory lymphoma or MM
Assay: Safety: adverse events graded by NCI CTCAE version 3.0
[1] = Schedule A, n=27, high-level term

NS(=O)(=O)OC[C@@H]1C[C@@H](n2ccc3c(N[C@H]4CCc5ccccc54)ncnc32)C[C@@H]1O [pevonedistat]
ALT increased, All grades (Schedule A, n=27): 12 (44) n (%)
AST increased, All grades (Schedule A, n=27): 12 (44) n (%)
Abdominal discomfort, All grades (Schedule A, n=27): 1 (4) n (%)
Abdominal discomfort, Grade ≥3 (Schedule A, n=27): 0 n (%)
Anemia, All grades (Schedule A, n=27): 7 (26) n (%)
Anemia, Grade ≥3 (Schedule A, n=27): 5 (19) n (%)
Any AE, All grades (Schedule A, n=27): 27 (100) n (%)
Any AE, Grade ≥3 (Schedule A, n=27): 16 (59) n (%)
Asthenia, All grades (Schedule A, n=27): 2 (7) n (%)
Asthenia, Grade ≥3 (Schedule A, n=27): 0 n (%)
Back pain, All grades (Schedule A, n=27): 3 (11) n (%)
Back pain, Grade ≥3 (Schedule A, n=27): 0 n (%)
Blood alkaline phosphatase increased, All grades (Schedule A, n=27): 6 (22) n (%)
Blood alkaline phosphatase increased, Grade ≥3 (Schedule A, n=27): 0 n (%)
Blood creatinine increased, All grades (Schedule A, n=27): 4 (15) n (%)
Blood creatinine increased, Grade ≥3 (Schedule A, n=27): 0 n (%)
Chills, All grades (Schedule A, n=27): 5 (19) n (%)
Chills, Grade ≥3 (Schedule A, n=27): 0 n (%)
Constipation, All grades (Schedule A, n=27): 10 (37) n (%)
Constipation, Grade ≥3 (Schedule A, n=27): 0 n (%)
Cough, All grades (Schedule A, n=27): 2 (7) n (%)
Cough, Grade ≥3 (Schedule A, n=27): 0 n (%)
Decreased appetite, All grades (Schedule A, n=27): 6 (22) n (%)
Decreased appetite, Grade ≥3 (Schedule A, n=27): 0 n (%)
Dehydration, All grades (Schedule A, n=27): 2 (7) n (%)
Dehydration, Grade ≥3 (Schedule A, n=27): 0 n (%)
Diarrhea, All grades (Schedule A, n=27): 7 (26) n (%)
Diarrhea, Grade ≥3 (Schedule A, n=27): 1 (4) n (%)
Dizziness, All grades (Schedule A, n=27): 6 (22) n (%)
Dizziness, Grade ≥3 (Schedule A, n=27): 0 n (%)
Dyspepsia, All grades (Schedule A, n=27): 0 n (%)
Dyspepsia, Grade ≥3 (Schedule A, n=27): 0 n (%)
Dyspnea exertional, All grades (Schedule A, n=27): 0 n (%)
Dyspnea exertional, Grade ≥3 (Schedule A, n=27): 0 n (%)
Dyspnea, All grades (Schedule A, n=27): 5 (19) n (%)
Dyspnea, Grade ≥3 (Schedule A, n=27): 1 (4) n (%)
Fatigue, All grades (Schedule A, n=27): 18 (67) n (%)
Fatigue, Grade ≥3 (Schedule A, n=27): 2 (7) n (%)
Headache, All grades (Schedule A, n=27): 7 (26) n (%)
Headache, Grade ≥3 (Schedule A, n=27): 0 n (%)
Hyperbilirubinemia, All grades (Schedule A, n=27): 1 (4) n (%)
Hyperbilirubinemia, Grade ≥3 (Schedule A, n=27): 0 n (%)
Hypercalcemia, All grades (Schedule A, n=27): 5 (19) n (%)
Hypercalcemia, Grade ≥3 (Schedule A, n=27): 2 (7) n (%)
Hyperkalemia, All grades (Schedule A, n=27): 4 (15) n (%)
Hyperkalemia, Grade ≥3 (Schedule A, n=27): 1 (4) n (%)
Hypomagnesemia, All grades (Schedule A, n=27): 6 (22) n (%)
Hypomagnesemia, Grade ≥3 (Schedule A, n=27): 0 n (%)
Hypophosphatemia, All grades (Schedule A, n=27): 5 (19) n (%)
Hypophosphatemia, Grade ≥3 (Schedule A, n=27): 3 (11) n (%)
Insomnia, All grades (Schedule A, n=27): 3 (11) n (%)
Insomnia, Grade ≥3 (Schedule A, n=27): 0 n (%)
Muscle spasms, All grades (Schedule A, n=27): 4 (15) n (%)
Myalgia, All grades (Schedule A, n=27): 10 (37) n (%)
Myalgia, Grade ≥3 (Schedule A, n=27): 0 n (%)
Nausea, All grades (Schedule A, n=27): 12 (44) n (%)
Nausea, Grade ≥3 (Schedule A, n=27): 0 n (%)
Neutropenia, All grades (Schedule A, n=27): 2 (7) n (%)
Neutropenia, Grade ≥3 (Schedule A, n=27): 2 (7) n (%)
Pain in extremity, All grades (Schedule A, n=27): 4 (15) n (%)
Pain in extremity, Grade ≥3 (Schedule A, n=27): 0 n (%)
Pain, All grades (Schedule A, n=27): 6 (22) n (%)
Pain, Grade ≥3 (Schedule A, n=27): 1 (4) n (%)
Paresthesia, All grades (Schedule A, n=27): 2 (7) n (%)
Paresthesia, Grade ≥3 (Schedule A, n=27): 0 n (%)
Peripheral edema, All grades (Schedule A, n=27): 3 (11) n (%)
Peripheral edema, Grade ≥3 (Schedule A, n=27): 0 n (%)
Pneumonia, All grades (Schedule A, n=27): 1 (4) n (%)
Pneumonia, Grade ≥3 (Schedule A, n=27): 1 (4) n (%)
Productive cough, All grades (Schedule A, n=27): 2 (7) n (%)
Productive cough, Grade ≥3 (Schedule A, n=27): 0 n (%)
Pyrexia, All grades (Schedule A, n=27): 11 (41) n (%)
Pyrexia, Grade ≥3 (Schedule A, n=27): 0 n (%)
Sinus tachycardia, All grades (Schedule A, n=27): 2 (7) n (%)
Sinus tachycardia, Grade ≥3 (Schedule A, n=27): 1 (4) n (%)
Thrombocytopenia, All grades (Schedule A, n=27): 3 (11) n (%)
Thrombocytopenia, Grade ≥3 (Schedule A, n=27): 1 (4) n (%)
Upper respiratory tract infection, All grades (Schedule A, n=27): 3 (11) n (%)
Upper respiratory tract infection, Grade ≥3 (Schedule A, n=27): 0 n (%)
Vision blurred, All grades (Schedule A, n=27): 5 (19) n (%)
Vision blurred, Grade ≥3 (Schedule A, n=27): 0 n (%)
Vomiting, All grades (Schedule A, n=27): 7 (26) n (%)
Vomiting, Grade ≥3 (Schedule A, n=27): 0 n (%)
Weight decreased, All grades (Schedule A, n=27): 1 (4) n (%)
Weight decreased, Grade ≥3 (Schedule A, n=27): 0 n (%)
ALT increased, Grade ≥3 (Schedule A, n=27, 1 DLT): 1 (4) ^a n (%)
AST increased, Grade ≥3 (Schedule A, n=27, 1 DLT): 2 (7) ^a n (%)
Muscle spasms, Grade ≥3 (Schedule A, n=27, 1 DLT): 1 (4) ^a n (%)
Peripheral neuropathies NEC, All grades [1]: 3 (11) n (%)
Peripheral neuropathies NEC, Grade ≥3 [1]: 0 n (%)
ALT increased, All grades (Schedule B, n=17): 4 (24) n (%)
ALT increased, Grade ≥3 (Schedule B, n=17): 1 (6) n (%)
AST increased, All grades (Schedule B, n=17): 2 (12) n (%)
AST increased, Grade ≥3 (Schedule B, n=17): 0 n (%)
Abdominal discomfort, All grades (Schedule B, n=17): 3 (18) n (%)
